Data published in patent publication US20180086714A1 (priority 2015, published 2018).

Legend:
Assay type in all cases: cell-based
Phytophthora infestans = details: 405 nm 7 days after inoculation, comparative example
Leptosphaeria nodorum = test: Microtest, activity against wheat leaf spots; details: 405 nm 9 days after inoculation, comparative example
Septoria tritici = test: Microtest, activity against leaf blotch on wheat; details: 405 nm 9 days after inoculation, comparative example

Row | SMILES | Growth (%) at 31 ppm (Phytophthora infestans) [%] | Growth (%) at 2 ppm (Leptosphaeria nodorum) [%] | Growth (%) at 8 ppm (Septoria tritici) [%]
1 | CC1(C)Cc2cc[nH]c2C(c2cnc3ccccc3c2)=N1 [drawing 140] | 17 | – | –
2 | CC1(C)Cc2cc[nH]c2C(c2cnc3ccccc3c2)=N1 [drawing 142] | – | 65 | –
3 | CC1(C)N=C(c2cnc3ccccc3c2)c2ccccc2C1(C)C | – | – | 74
4 | CC1(C)Cc2ccccc2C(c2cnc3ccccc3c2)=N1 [drawing 141] | – | 83 | –
5 | CC1(C)N=C(c2cnc3ccccc3c2)c2[nH]ccc2C1(C)C | – | – | 53
6 | CC1(C)Cc2ccccc2C(c2cnc3ccccc3c2)=N1 [drawing 139] | 33 | – | –
